Paper PMC8787486 (mBio, 2022)

Tests used:
BlaMab = molecular target: T1, BlaMab (Mycobacteroides abscessus, UniProt B1MCI3); assay: nitrocefin competition kinetics with purified enzyme; ESI-MS carbamoyl-enzyme adduct (+[…] Da); Kd = koff/(k2/K); format: biochemical
T1 construct: gene MAB_2875

LdtMab2 = molecular target: T2, LdtMab2 (Mycobacteroides abscessus, UniProt B1MMQ4); assay: timed ESI-MS of intact protein, +[…] Da carbamoyl-enzyme adduct after […] h; format: binding
T2 construct: gene MAB_1530
T2 sequence (B1MMQ4 42-406): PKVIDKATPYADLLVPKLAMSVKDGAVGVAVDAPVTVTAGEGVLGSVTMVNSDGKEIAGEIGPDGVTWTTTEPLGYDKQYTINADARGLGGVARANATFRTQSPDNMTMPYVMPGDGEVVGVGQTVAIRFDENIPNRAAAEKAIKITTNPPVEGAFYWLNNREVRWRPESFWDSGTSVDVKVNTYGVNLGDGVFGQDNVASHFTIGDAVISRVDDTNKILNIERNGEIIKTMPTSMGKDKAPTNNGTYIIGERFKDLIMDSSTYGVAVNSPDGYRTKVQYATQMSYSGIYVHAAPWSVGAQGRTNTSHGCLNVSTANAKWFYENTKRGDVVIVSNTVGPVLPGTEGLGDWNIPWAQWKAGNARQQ

LdtMab4 = molecular target: T3, LdtMab4 (Mycobacteroides abscessus, UniProt B1MKW1); assay: as above; format: binding
T3 construct: gene MAB_4537c
T3 sequence (B1MKW1 42-333): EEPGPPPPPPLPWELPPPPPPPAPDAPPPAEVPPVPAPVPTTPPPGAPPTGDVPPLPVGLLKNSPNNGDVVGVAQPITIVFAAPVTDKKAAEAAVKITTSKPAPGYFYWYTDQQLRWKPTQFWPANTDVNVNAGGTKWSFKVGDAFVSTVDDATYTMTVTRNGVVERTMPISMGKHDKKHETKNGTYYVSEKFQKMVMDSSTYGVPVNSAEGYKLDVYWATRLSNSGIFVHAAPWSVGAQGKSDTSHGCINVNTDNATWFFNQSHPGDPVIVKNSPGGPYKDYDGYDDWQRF

[1] = test system: O=C(Cc1cccs1)N[C@@H]1C(=O)N2C(C(=O)O)=C(/C=C/c3ccc([N+](=O)[O-])cc3[N+](=O)[O-])CS[C@H]12; assay: purified protein; format: biochemical, Mycobacteroides abscessus

Compound	Kd (BlaMab)	timed ESI-MS of intact protein, +278 Da carbamoyl-enzyme adduct after 2 h (LdtMab2)	timed ESI-MS of intact protein, +276 Da carbamoyl-enzyme adduct after 2 h (LdtMab4)	Km [1]
CC1=C[C@@H]2CN(C(=O)N2OS(=O)(=O)O)[C@@H]1C(N)=O [DUR, durlobactam]	200 ± 100 pM	DUR formed carbamoyl-enzyme complexes with D,D-c (Fig. 3B), LdtMab2, and LdtMab4 (Fig. 3C and E).	DUR formed carbamoyl-enzyme complexes with D,D-c (Fig. 3B), LdtMab2, and LdtMab4 (Fig. 3C and E).	–
BlaMab (Mycobacteroides abscessus ATCC 19977)	–	–	–	22 µM
